Numbered stars: 1 amine (or outer) side, 2 acyl side, 3 side chain; on linkers, the order of the positions; unused ones are H or OH. Square brackets hold non-standard residues; d marks the D form. Peptide text beside a SMILES is read from it. X1 = CCCCCCCCCCCCCCCC(=O)NC(=O)CC[C@H](N[*:1])C(=O)[*:2]

The text below walks through data of ChEMBL document CHEMBL3600350, “Peptide HIV fusion inhibitors: modifications and conjugations” (Medchemcomm, 2014).

In experiment [1] the test system is Human immunodeficiency virus 1. The experiment is described as follows: Antiviral activity against HIV-1 HXB2 assessed as inhibition of viral infection in human TZM-bl cells after 18 hrs by steady-glo luciferase reporter gene assay. The format is functional, organism-based. The settings on record: Human immunodeficiency virus 1, HXB2, TZM-bl. (In general: In a reporter assay the amount or activity of a reporter protein is the signal.)

Experiment [2] can be described thus: Inhibition of HIV-1 HXBc2 env-mediated cell fusion between viral infected human Jurkat cells and non infected human Jurkat E6-1 cells after 6 hrs by DiI/DiD probe-based flow cytometric analysis. The settings on record: Human immunodeficiency virus 1, HXBc2, Jurkat. (In general: A flow cytometer gives signals particle by particle.)
Experiment [3] relates to Human immunodeficiency virus 1. The experiment is described as follows: Antiviral activity against HIV-1 HXB2 assessed as inhibition of viral fusion with human TZM-bl cells after 6 hrs by luciferase reporter gene assay. Format: functional, organism-based. The settings on record: Human immunodeficiency virus 1, HXB2, TZM-bl.

Turning to `CC[C@H](C)[C@H](NC(=O)[C@H](CC(C)C)NC(=O)[C@H](CO)NC(=O)[C@H](Cc1c[nH]cn1)NC(=O)[C@@H](NC(=O)[C@H](CC(C)C)NC(=O)[C@H](CO)NC(=O)[C@@H](NC(=O)[C@@H](N)Cc1ccc(O)cc1)[C@H](C)O)[C@@H](C)CC)C(=O)N[C@@H](CCC(=O)O)C(=O)N[C@@H](CCC(=O)O)C(=O)N[C@@H](CO)C(=O)N[C@@H](CCC(N)=O)C(=O)N[C@@H](CC(N)=O)C(=O)N[C@@H](CCC(N)=O)C(=O)N[C@@H](CCC(N)=O)C(=O)N[C@@H](CCC(=O)O)C(=O)N[C@@H](CCCCN)C(=O)N[C@@H](CC(N)=O)C(=O)N[C@@H](CCCCN)C(=O)O`, the IC50 in experiment [1] is over 4000 nM.

For `CCCCCCCCCCCCCCCC(O)C(CO)NC(=O)NC(=O)[C@H](CCCCN)NC(=O)[C@H](CC(N)=O)NC(=O)[C@H](CCCCN)NC(=O)[C@H](CCC(=O)O)NC(=O)[C@H](CCC(N)=O)NC(=O)[C@H](CCC(N)=O)NC(=O)[C@H](CC(N)=O)NC(=O)[C@H](CCC(N)=O)NC(=O)[C@H](CO)NC(=O)[C@H](CCC(=O)O)NC(=O)[C@H](CCC(=O)O)NC(=O)[C@@H](NC(=O)[C@H](CC(C)C)NC(=O)[C@H](CO)NC(=O)[C@H](Cc1c[nH]cn1)NC(=O)[C@@H](NC(=O)[C@H](CC(C)C)NC(=O)[C@H](CO)NC(=O)[C@@H](NC(=O)[C@@H](N)Cc1ccc(O)cc1)[C@H](C)O)[C@@H](C)CC)[C@@H](C)CC` (some centres undefined), the IC50 in experiment [1] is 350 nM.

In experiment [2], H-LLSGIVQQQNNLLRAIEAQQHLLQ-OH showed an IC50 of 338 nM.

For `CCCCCCCCCCCCCCCC(O)C(CO)NC(=O)N[C@@H](CC(C)C)C(=O)N[C@@H](CC(C)C)C(=O)N[C@@H](CCC(N)=O)C(=O)N[C@@H](CC(C)C)C(=O)N[C@H](C(=O)N[C@H](C(=O)N[C@@H](Cc1c[nH]c2ccccc12)C(=O)NCC(=O)N[C@H](C(=O)N[C@@H](CCCCN)C(=O)N[C@@H](CCC(N)=O)C(=O)N[C@@H](CC(C)C)C(=O)N[C@@H](CCC(N)=O)C(=O)N[C@@H](C)C(=O)N[C@@H](CCCNC(=N)N)C(=O)N[C@H](C(=O)N[C@@H](CC(C)C)C(=O)O)[C@@H](C)CC)[C@@H](C)CC)C(C)C)[C@H](C)O` (some centres undefined), in experiment [1], the IC50 was 121 nM.

For `CCCCCCCCCCCCCCCC(=O)[C@H](CCCCN)NC(=O)[C@H](CCC(=O)O)NC(=O)[C@H](CC(C)C)NC(=O)[C@H](CC(C)C)NC(=O)[C@H](CCC(=O)O)NC(=O)[C@H](CCC(N)=O)NC(=O)[C@H](CCC(=O)O)NC(=O)[C@H](CC(N)=O)NC(=O)[C@H](CCCCN)NC(=O)[C@H](CCC(=O)O)NC(=O)[C@H](CCC(N)=O)NC(=O)[C@H](CCC(N)=O)NC(=O)[C@H](CC(N)=O)NC(=O)[C@H](CCC(N)=O)NC(=O)[C@H](CO)NC(=O)[C@H](CCC(=O)O)NC(=O)[C@H](CCC(=O)O)NC(=O)[C@@H](NC(=O)[C@H](CC(C)C)NC(=O)[C@H](CO)NC(=O)[C@H](Cc1c[nH]cn1)NC(=O)[C@@H](NC(=O)[C@H](CC(C)C)NC(=O)[C@H](CO)NC(=O)[C@@H](NC(=O)[C@@H](N)Cc1ccc(O)cc1)[C@H](C)O)[C@@H](C)CC)[C@@H](C)CC`, the IC50 in experiment [3] stood at 1.3 nM.

Consider `CCCCCCCCCCCCCCCC(O)C(CO)NCNC(=O)[C@@H](CCCCN)NC(=O)[C@H](CC(C)C)NC(=O)[C@@H](NC(=O)[C@H](CCCNC(=N)N)NC(=O)[C@H](C)NC(=O)[C@H](CCC(N)=O)NC(=O)[C@H](CC(C)C)NC(=O)[C@H](CCC(N)=O)NC(=O)[C@H](CCCCN)NC(=O)[C@@H](NC(=O)CNC(=O)[C@H](Cc1c[nH]c2ccccc12)NC(=O)[C@@H](NC(=O)[C@@H](NC(=O)[C@H](CC(C)C)NC(=O)[C@H](CCC(N)=O)NC(=O)[C@H](CC(C)C)NC(=O)[C@@H](N)CC(C)C)[C@H](C)O)C(C)C)[C@@H](C)CC)[C@@H](C)CC` (some centres undefined), for which, in experiment [1], the IC50 was determined as 287 nM.

`CCCCCCCCCCCCCCCC(=O)NC(=O)CC[C@H](N)C(=O)N[C@@H](CC(C)C)C(=O)N[C@@H](CC(C)C)C(=O)N[C@@H](CO)C(=O)NCC(=O)N[C@H](C(=O)N[C@H](C(=O)N[C@@H](CCC(N)=O)C(=O)N[C@@H](CCC(N)=O)C(=O)N[C@@H](CCC(N)=O)C(=O)N[C@@H](CC(N)=O)C(=O)N[C@@H](CC(N)=O)C(=O)N[C@@H](CC(C)C)C(=O)N[C@@H](CC(C)C)C(=O)N[C@@H](CCCNC(=N)N)C(=O)N[C@@H](C)C(=O)N[C@H](C(=O)N[C@@H](CCC(=O)O)C(=O)N[C@@H](C)C(=O)N[C@@H](CCC(N)=O)C(=O)N[C@@H](CCC(N)=O)C(=O)N[C@@H](Cc1c[nH]cn1)C(=O)N[C@@H](CC(C)C)C(=O)N[C@@H](CC(C)C)C(=O)N[C@@H](CCC(N)=O)C(=O)O)[C@@H](C)CC)C(C)C)[C@@H](C)CC` (H-[X1]LLSGIVQQQNNLLRAIEAQQHLLQ-OH): the IC50 in experiment [2] is 10 nM.

Take `CC[C@H](C)[C@H](NC(=O)CNC(=O)[C@H](Cc1c[nH]c2ccccc12)NC(=O)[C@@H](NC(=O)[C@@H](NC(=O)[C@H](CC(C)C)NC(=O)[C@H](CCC(N)=O)NC(=O)[C@H](CC(C)C)NC(=O)[C@@H](N)CC(C)C)[C@H](C)O)C(C)C)C(=O)N[C@@H](CCCCN)C(=O)N[C@@H](CCC(N)=O)C(=O)N[C@@H](CC(C)C)C(=O)N[C@@H](CCC(N)=O)C(=O)N[C@@H](C)C(=O)N[C@@H](CCCNC(=N)N)C(=O)N[C@H](C(=O)N[C@@H](CC(C)C)C(=O)O)[C@@H](C)CC`: in experiment [1], the IC50 is over 4000 nM.

Consider H-YTSLIHSLIEESQNQQEKNEQELLE-OH, for which the IC50 in experiment [3] was determined as 2860 nM.

For orientation: IC50 means the concentration that gives 50% inhibition.
